These results are taken from ChEMBL document CHEMBL5705903, “A DNA Hypomethylation Signature Predicts Antitumor Activity of LSD1 Inhibitors in SCLC” (Cancer Cell, 2015).

Data set [1] in a line: AUC (0 to infinity) in mouse at 5.5 mg/kg, ip by HPLC/MS/MS analysis. It is filed as ADME, organism-based. To be noted: in vivo.
Data set [2] is described as follows: Toxicity in dog assessed as effect on hemodynamics measured for 28 days. Further details: species or system Canis lupus familiaris. To be noted: in vivo, 672 h, time 28 day.
Data set [3] is described as follows: Effect on cleaved PARP level in human NCI-H510 cells assessed as relative expression at 10 nM measured after 7 days by Western blot analysis (reference value: 0.24). It counts as functional, NCI-H510A. To be noted: time 7 day.
Data set [4] is described as follows: Effect on cleaved PARP level in human NCI-H526 cells assessed as relative expression at 1000 nM measured after 7 days by Western blot analysis (reference value: 0.57). The following applies: time 7 day. It is filed as functional.
Data set [5] in a line: Toxicity in rat assessed as morbidity measured for 28 days. To be noted: in vivo, 672 h, time 28 day.
The nature of data set [6]: Toxicity in rat assessed as neutrophenia measured for 28 days. To be noted: in vivo, 672 h, time 28 day.
Data set [7] is described as follows: Effect on cleaved PARP level in human NCI-H510 cells assessed as fold change at 10 nM measured after 14 days by Western blot analysis (reference value: 1.00). To be noted: time 14 day. It is filed as functional, NCI-H510A.
The test system of data set [8] is NCI-H1417. The experiment in a line: Cell growth inhibition of human NCI-H1417 cells measured for 4 days. The following applies: time 4.0 day. It counts as functional, cell-based.
A short description of data set [9]: Effect on cleaved PARP level in human COLO-668 cells assessed as fold change at 1000 nM measured after 10 days by Western blot analysis (reference value: 1.00). It is filed as functional. The following applies: time 10 day.
Data set [10] is described as follows: Effect on cleaved PARP level in human NCI-H146 cells assessed as fold change at 1000 nM measured after 7 days by Western blot analysis (reference value: 1.00). It counts as functional. To be noted: time 7 day.
Data set [11] concerns NCI-H526. The data set is described as follows: Upregulation of LSD1 signal enrichment at typical enhancers in human NCI-H526 cells at 1 uM. It counts as functional, cell-based.
Data set [12] can be described thus: Toxicity in rat assessed as multifocal hemorrhage in organs measured for 28 days. The following applies: in vivo, 672 h, time 28 day.
The nature of data set [13]: Antitumor activity against human PDX L36 cells xenografted in mouse assessed as tumor growth inhibition at 1.5 mg/kg administered daily measured for 20 days relative to control. To be noted: PDX LX36, 480 h, time 20 day, read-out: TGI. It counts as functional.
In data set [14] the test system is NCI-H1417. The data set is described as follows: In vivo inhibition of LSD1 in human NCI-H1417 cells xenografted in nude mouse assessed as change in SNTB1 gene expression measured after 24 hrs post single administration by qRT-PCR analysis. It is filed as functional, organism-based. To be noted: dose 0.02-135 mg/kg.
The nature of data set [15]: Effect on cleaved PARP level in human NCI-H524 cells assessed as fold change at 10 nM measured after 10 days by Western blot analysis (reference value: 1.00). It is filed as functional. The following applies: time 10 day.
A short description of data set [16]: Effect on cleaved PARP level in human NCI-H510 cells assessed as fold change at 1000 nM measured after 7 days by Western blot analysis (reference value: 1.00). It is filed as functional, NCI-H510A. The following applies: time 7 day.
Data set [17] is described as follows: Effect on cleaved PARP level in human NCI-H889 cells assessed as fold change at 10 nM measured after 14 days by Western blot analysis (reference value: 1.00). It is filed as functional. The following applies: time 14 day.
Data set [18] is described as follows: Effect on cleaved PARP level in human NCI-H69 cells assessed as fold change at 1000 nM measured after 7 days by Western blot analysis (reference value: 1.00). It is filed as functional. To be noted: time 7 day.
The nature of data set [19]: Effect on cleaved PARP level in human NCI-H524 cells assessed as relative expression at 1000 nM measured after 10 days by Western blot analysis (reference value: 0.95). It is filed as functional. The following applies: time 10 day.
Data set [20] relates to NCI-H2171. The data set is described as follows: Antitumor activity against human NCI-H2171 cells xenografted in nude mouse assessed as tumor growth inhibition at […] mg/kg, po administered daily measured twice weekly relative to control. The following applies: read-out: TGI. It counts as functional.
Data set [21] can be described thus: Effect on cleaved PARP level in human NCI-H1417 cells assessed as fold change at 1000 nM measured after 10 days by Western blot analysis (reference value: 1.00). To be noted: time 10 day. It counts as functional.
The nature of data set [22]: Effect on cleaved PARP level in human NCI-H510 cells assessed as relative expression at 10 nM measured after 14 days by Western blot analysis (reference value: 0.01). It is filed as functional, NCI-H510A. The following applies: time 14 day.
The nature of data set [23]: Effect on cleaved PARP level in human NCI-H526 cells assessed as relative expression at 100 nM measured after 7 days by Western blot analysis (reference value: 0.57). It is filed as functional. To be noted: time 7 day.
Data set [24] deals with NCI-H69. The experiment in a line: Antitumor activity against human NCI-H69 cells xenografted in nude mouse assessed as mean tumor volume at 1.5 mg/kg, po administered daily measured twice weekly (reference value: 1063 +/- 161 mm3). It is filed as functional.
The test system of data set [25] is NCI-H69. The experiment in a line: Antitumor activity against human NCI-H69 cells xenografted in nude mouse assessed as mean tumor volume at 0.5 mg/kg, po administered daily measured twice weekly (reference value: 1063 +/- 161 mm3). It counts as functional.
A short description of data set [26]: Effect on cleaved PARP level in human NCI-H2171 cells assessed as fold change at 100 nM measured after 7 days by Western blot analysis (reference value: 1.00). It counts as functional. The following applies: time 7 day.
For data set [27], the system named is NCI-H526. The experiment in a line: Effect on genomic redistribution of LSD1 to new sites in human NCI-H526 cells at 1 uM. It counts as functional, cell-based.
Data set [28] in a line: Effect on cleaved PARP level in human NCI-H889 cells assessed as fold change at 100 nM measured after 7 days by Western blot analysis (reference value: 1.00). It counts as functional. To be noted: time 7 day.
Data set [29] is described as follows: Effect on cleaved PARP level in human NCI-H2171 cells assessed as fold change at 1000 nM measured after 10 days by Western blot analysis (reference value: 1.00). To be noted: time 10 day. It is filed as functional.
Data set [30] deals with NCI-H2171. The experiment in a line: Antitumor activity against human NCI-H2171 cells xenografted in nude mouse assessed as mean tumor volume at […] mg/kg, po administered daily measured twice weekly (reference value: 1553 +/- 339 mm3). It is filed as functional. To be noted: 1.25 mg/kg.
Data set [31] can be described thus: Effect on cleaved PARP level in human NCI-H510 cells assessed as fold change at 1000 nM measured after 10 days by Western blot analysis (reference value: 1.00). It counts as functional, NCI-H510A. To be noted: time 10 day.
The nature of data set [32]: Effect on cleaved PARP level in human NCI-H524 cells assessed as relative expression at 100 nM measured after 14 days by Western blot analysis (reference value: […]). It is filed as functional. To be noted: time 14 day.
The nature of data set [33]: Tmax in mouse tumor at 5 mg/kg, po by HPLC/MS/MS analysis. It is filed as ADME, organism-based, Neoplasm.
A short description of data set [34]: Effect on cleaved PARP level in human NCI-H524 cells assessed as fold change at 1000 nM measured after 14 days by Western blot analysis (reference value: 1.00). It is filed as functional. The following applies: time 14 day.
Data set [35] has as its system NCI-H526. The data set is described as follows: In vivo inhibition of LSD1 in human NCI-H526 cells xenografted in nude mouse assessed as change in TSPAN8 gene expression administrated daily for 5 days by qRT-PCR analysis. It is filed as functional, organism-based. To be noted: dose 0.02-135 mg/kg, time 5.0 day.
The nature of data set [36]: Effect on cleaved PARP level in human NCI-H1694 cells assessed as fold change at 10 nM measured after 10 days by Western blot analysis (reference value: 1.00). It is filed as functional. To be noted: time 10 day.
The nature of data set [37]: Effect on cleaved PARP level in human NCI-H889 cells assessed as relative expression at 100 nM measured after 14 days by Western blot analysis (reference value: 0.94). It is filed as functional. To be noted: time 14 day.
Data set [38] can be described thus: Effect on cleaved PARP level in human NCI-H526 cells assessed as fold change at 1000 nM measured after 7 days by Western blot analysis (reference value: 1.00). It counts as functional. The following applies: time 7 day.

Active and inactive are the calls of the source. The rule behind the calls is not given here.

The compound `c1ccc([C@@H]2C[C@H]2NC2CCNCC2)cc1` returned an AUC(0-inf) in data set [1] of 938 ng·h/mL.
On to `O=C(O)c1ccc(CN2CCC(CN[C@@H]3C[C@H]3c3ccccc3)CC2)cc1` [GSK2879552], for which the Activity result in data set [2] was “Toxic”; in data set [3], 0.3; in data set [4], 0.74; in [5], “Toxic”; in data set [6], “Toxic”; in data set [12], “Toxic”. For the same compound, the Activity was found to be 0.79 in data set [19]; 0.32 in data set [22]; 0.68 in [23]; 610 mm3 in the data set on NCI-H69 [24]; 592 mm3 with NCI-H69 [25]; 1055 mm3 with NCI-H2171 [30]. Moreover, the values for the Activity in [32] and in [37] were 1.13 and 2.36, respectively. The “fold change (FC)” value is listed as 1.79 in data set [7]; 0.59 in data set [9]; 1.12 in data set [10]; 0.81 in data set [15]; 2.06 in data set [16]; 1.84 in [17]. Besides, the “fold change (FC)” value in data set [18] is given as 2.21; in data set [21] it was 2.12; in data set [26] it was 1.71; in [28] it was 1.25; in [29] it was 1.33; in data set [31], 12.67. Further, the “fold change (FC)” value in data set [34] is reported as 0.77; in [36] it was 0.88; in data set [38], 1.3. In addition, the “growth inhibition (GI)” value with NCI-H1417 [8] was “inactive”. Also, the result with NCI-H526 [11] was Active. Further, the inhibition in vivo at 1.5 mg/kg in data set [13] turned out to be 19%. The inhibition entry in the data set with NCI-H1417 [14] and in the data set with NCI-H526 [35] was “Dose-Dependent Effect” in each case. Moreover, the inhibition in vivo at 1.25 mg/kg in the data set on NCI-H2171 [20] came to 37%. Moreover, in the data set on NCI-H526 [27], the outcome was inactive. For the same compound, the Tmax in data set [33] was found to be 30 min.
